Among the data in patent US6197771A, “Glutamate (ampa/kainate) receptor antagonists: N-substituted fused azacycloalkylquinoxalinediones” (Warner-Lambert Company, priority 2000, dated 2001) are IC50 and inhibition values, retold here.

Assay [1] addresses AMPA receptor. The assay can be described thus: AMPA receptor binding (Honore et al.).
Assay [2] concerns the target T1, glycine site of the NMDA receptor (Rattus norvegicus, UniProt P35439).
T1 construct: from tissue
Briefly: Binding to the glycine site of the NMDA receptor (Jones et al.).

The target in assay [3] is kainate site (non-NMDA receptor). The assay can be described thus: Kainate site (non-NMDA receptor) binding (London and Coyle).

Where a name gives a salt, the structure may show the parent alone.

As a reminder, the IC50 is the point on the concentration scale where inhibition reaches its midpoint. Read a low IC50 as inhibition by little substance. By inhibition is commonly meant how much of the control response was suppressed. A high value points to strong suppression. On to `O=C(Cc1ccccc1)N1CCc2c([N+](=O)[O-])cc3[nH]c(=O)c(=O)[nH]c3c2C1` [Example 38, 1,4,7,8,9,10-Hexahydro-6-nitro-9-(phenylacetyl)pyrido(3,4-f]quinoxaline-2,3-dione], for which the IC50 in assay [1] came out at 0.24 µM; in assay [3], 1.62 µM. Besides, in assay [2], testing at 10 µM gave an inhibition of 99%.

As to `O=C(Cc1ccc(Cl)cc1)N1CCc2c([N+](=O)[O-])cc3[nH]c(=O)c(=O)[nH]c3c2C1` [Example 39], the IC50 in assay [1] came to 0.84 µM; in assay [3], 8.2 µM. Further, the inhibition at 10 µM in assay [2] turned out to be 98%.

`O=c1[nH]c2cc(Br)c3c(c2[nH]c1=O)CN(CCCc1ccccc1)CC3` [Example 14, 6-Bromo-1,4,7,8,9,10-hexahydro-9-(3-phenylpropyl)pyrido[3,4-f]quinoxaline-2,3-dione]: the values for the IC50 in assay [1] and in assay [3] were over 100 µM and 40 µM, respectively. Further, in assay [2], the inhibition at 10 µM was under 50%.

Take `O=c1[nH]c2ccc3c(c2[nH]c1=O)CCN(Cc1ccc(C(F)(F)F)cc1)C3` [Example 26]: the IC50 in assay [1] and in assay [3] was over 100 µM each time.

In the case of `O=C(c1ccc(Cl)cc1)N1CCc2c([N+](=O)[O-])cc3[nH]c(=O)c(=O)[nH]c3c2C1` [Example 37, 9-(4-Chlorobenzoyl)-1,4,7,8,9,10-hexahydro-6-nitropyrido[3,4-f]quinoxaline-2,3-dione], the figures for the IC50 in assay [1] and in assay [3] were 0.84 µM and 8.2 µM, respectively. In addition, the inhibition at 10 µM in assay [2] was determined as 74%.

Regarding `O=c1[nH]c2cc(Br)c3c(c2[nH]c1=O)CN(Cc1ccccc1)CC3` [Example 8, 6-Bromo-1,4,7,8,9,10-hexahydro-9-(phenylmethyl)pryrido[3,4-f]quinoxaline-2,3-dione], the IC50 in assay [1] amounted to 20 µM; in assay [3], 16 µM. This molecule registered an inhibition at 10 µM in assay [2] of under 50%.

`O=C(c1ccccc1)N1CCc2c([N+](=O)[O-])cc3[nH]c(=O)c(=O)[nH]c3c2C1` [Example 35, 9-Benzoyl-1,4,7,8,9,10-hexahydro-6-nitropyrido[3,4-f]quinoxaline-2,3-dione]: the IC50 in assay [1] amounted to 0.37 µM; in assay [3], 1.38 µM. Besides, the inhibition at 10 µM in assay [2] was 80%.

With `CC(C)(C)OC(=O)N1CCC(C(=O)N2CCc3ccc4[nH]c(=O)c(=O)[nH]c4c3C2)CC1` [Example 32, 1,1-dimethylethyl 4-[(1,2,3,4,7,8,9,10-octahydro-2,3-dioxopyrido[3,4-f]quinoxaline-9-yl)carbonyl]-1-piperidine carboxylate], the IC50 is over 100 µM in assay [1] and 65 µM in assay [3].

In the case of `O=c1[nH]c2cc(Br)c3c(c2[nH]c1=O)CCN(CCCc1ccccc1)C3` [Example 54, 6-Bromo-1,4,7,8,9,10-hexahydro-8-(3-Phenylproyl)pyrido[3,4-f]quinoxaline-2,3-dione hydrochloride], the values for the IC50 in assay [1] and in assay [3] were 43 µM and over 100 µM, respectively.

With `O=c1[nH]c2cc(Br)c3c(c2[nH]c1=O)CCN(Cc1cccc(C(F)(F)F)c1)C3` [Example 48, 6-Bromo-1,4,7,8,9,10-Hexahydro-8-[[3-(trifluoromethyl)methyl]pyrido[3,4-f]quinoxaline-2,3-dione hydrochloride], the IC50 in assay [1] is 21 µM; in assay [3], 67 µM.

Take `CC(C)(C)OC(=O)N1CCC(C(=O)N2CCc3c([N+](=O)[O-])cc4[nH]c(=O)c(=O)[nH]c4c3C2)CC1` [Example 34, 1,1-dimethylethyl 4-[(1,2,3,4,7,8,9,10-octahydro-6-nitro-2,3-dioxopyrido[3,4-f]quinoxaline-9-yl)carbonyl]-1-piperidine carboxylate]: the IC50 was 0.58 µM in assay [1] and 6.9 µM in assay [3]. Besides, in assay [2], the inhibition at 10 µM turned out to be 81%.

Regarding `O=c1[nH]c2ccc3c(c2[nH]c1=O)CNCC3` [Example 30, 1,4,7,8,9,10-Hexahydropyrido[3,4-f]quinoxaline-2,3-dione], the IC50 is 84 µM in assay [1] and 56 µM in assay [3].

In the case of `O=c1[nH]c2cc([N+](=O)[O-])c3c(c2[nH]c1=O)CN(Cc1ccc(C(F)(F)F)cc1)CC3` [Example 18], the results for the IC50 in assay [1] and in assay [3] were 3.1 µM and 34 µM, respectively.

In the case of `O=c1[nH]c2cc(Br)c3c(c2[nH]c1=O)CN(CCc1ccccc1)CC3` [Example 11, 6-Bromo-1,4,7,8,9,10-hexahydro-9-(2-phenylethyl)pyrido[3,4-f]quinoxaline-2,3-dione], the IC50 in assay [1] was over 100 µM; in assay [3], 9 µM. This molecule displayed an inhibition at 10 µM in assay [2] of under 50%.

Regarding `O=c1[nH]c2ccc3c(c2[nH]c1=O)CN(Cc1ccc(C(F)(F)F)cc1)CC3` [Example 17, 1,4,7,8,9,10-Hexahydro-9-[[4-(trifluoromethyl)phenyl]methyl]pyrido[3,4-f]quinoxaline-2,3-dione], the IC50 in assay [1] and in assay [3] was over 100 µM throughout.

Take `O=c1[nH]c2cc([N+](=O)[O-])c3c(c2[nH]c1=O)CNCC3` [Example 31, 1,4,7,8,9,10-Hexahydro-6-nitropyrido[3,4-f]quinoxaline-2,3-dione]: the IC50 in assay [1] came out at 51 µM; in assay [3], 0.48 µM. Moreover, the inhibition at 10 µM in assay [2] was 70%.

With `O=C(C1CCCCC1)N1CCc2c([N+](=O)[O-])cc3[nH]c(=O)c(=O)[nH]c3c2C1` [Example 36, 9-(Cyclohexylcarbonyl)-1,4,7,8,9,10-hexahydro-6-nitropyrido[3,4-f]quinoxaline-2,3-dione], the results for the IC50 in assay [1] and in assay [3] were 0.34 µM and 5.87 µM, respectively. In assay [2], this molecule gave an inhibition at 10 µM of 88%.
